Consider one compound from PMC3206814, “Stereo-Selectivity of Human Serum Albumin to Enantiomeric and Isoelectronic Pollutants Dissected by Spectroscopy, Calorimetry and Bioinformatics” (PLoS ONE, 2011).

Each structure is given as a SMILES string. pKd: −log10 of the molar value.

Assay [1] addresses T1, human serum albumin (HSA) (Homo sapiens, UniProt P02768).
T1 construct: gene ALB; commercial, essentially fatty acid free, full-length mature monomer of 585 residues, dialyzed, used without further purification
Kind of assay: UV absorption titration at […] nm, […]/dA vs […]/[S] plot. Type of assay: binding.

In assay [2] the target is T1, human serum albumin (HSA). In words: isothermal titration calorimetry, two-site sequential model. Type of assay: binding. Particulars: read-out: Kb(M^-1) (converted). The source says: isothermal titration calorimetry, two-site sequential model on human serum albumin (HSA)
In general terms: ITC needs no label: the signal is the heat of the interaction.

T1 sequence (P02768 25-609): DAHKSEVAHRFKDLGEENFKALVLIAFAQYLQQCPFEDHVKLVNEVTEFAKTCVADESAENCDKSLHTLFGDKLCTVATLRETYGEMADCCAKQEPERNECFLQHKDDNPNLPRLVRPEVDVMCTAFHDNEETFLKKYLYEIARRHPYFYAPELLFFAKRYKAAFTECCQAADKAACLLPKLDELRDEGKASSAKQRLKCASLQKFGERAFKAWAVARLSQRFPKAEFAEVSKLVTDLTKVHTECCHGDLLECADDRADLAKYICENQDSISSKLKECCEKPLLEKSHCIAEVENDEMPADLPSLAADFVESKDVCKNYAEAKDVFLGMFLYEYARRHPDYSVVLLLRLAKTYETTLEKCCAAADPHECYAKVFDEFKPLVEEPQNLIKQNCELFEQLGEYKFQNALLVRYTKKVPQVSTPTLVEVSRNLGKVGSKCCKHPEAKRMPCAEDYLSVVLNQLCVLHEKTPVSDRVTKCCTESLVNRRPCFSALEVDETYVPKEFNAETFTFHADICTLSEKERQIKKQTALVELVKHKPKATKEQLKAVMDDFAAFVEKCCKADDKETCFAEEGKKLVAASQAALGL

With `Oc1ccc2ccccc2c1` [2N, naphthalen–2–ol], the pKd in assay [1] is 4.17. Besides, the Kd in assay [2] is 25.3 µM.

For orientation: pKd means the Kd on a negative log10 scale, so that one unit is a factor of ten.
